The text below walks through data of ChEMBL document CHEMBL5465560, “Selectivity Literature for EUbOPEN Chemogenomic Library” (2024).

The target of experiment [1] is Serine/threonine-protein kinase 32B (Homo sapiens) (UniProt Q9NY57). To be noted: at 10 µM.
Experiment [2] concerns the target Tyrosine-protein kinase Srms (Homo sapiens) (UniProt Q9H3Y6). Briefly: Selectivity interaction (KinomeScan (DiscoverX)) EUB0000666a SRMS. To be noted: at 10 µM.
Experiment [3] has as its target T1, Calcium/calmodulin-dependent protein kinase type IV (Homo sapiens) (UniProt Q16566).
T1 sequence (whole entry): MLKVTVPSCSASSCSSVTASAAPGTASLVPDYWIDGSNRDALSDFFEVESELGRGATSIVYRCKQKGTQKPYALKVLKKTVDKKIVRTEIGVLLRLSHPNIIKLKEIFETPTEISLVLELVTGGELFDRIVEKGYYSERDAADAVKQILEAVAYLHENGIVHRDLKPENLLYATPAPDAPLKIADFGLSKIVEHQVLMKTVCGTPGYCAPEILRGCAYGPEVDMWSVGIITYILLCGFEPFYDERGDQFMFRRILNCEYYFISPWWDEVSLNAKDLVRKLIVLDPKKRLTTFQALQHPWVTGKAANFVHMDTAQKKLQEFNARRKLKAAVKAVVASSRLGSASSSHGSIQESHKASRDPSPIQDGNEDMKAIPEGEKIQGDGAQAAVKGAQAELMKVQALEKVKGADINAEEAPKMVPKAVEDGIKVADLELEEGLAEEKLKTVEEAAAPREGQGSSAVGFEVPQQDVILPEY
Briefly: Selectivity interaction (Kinase panel (DSF assay)) EUB0001558a CAMK4. A general note: DSF heats the sample and reads unfolding from a dye or from intrinsic fluorescence.

The target of experiment [4] is T2, Tyrosine-protein kinase Mer (Homo sapiens) (UniProt Q12866).
T2 sequence (whole entry): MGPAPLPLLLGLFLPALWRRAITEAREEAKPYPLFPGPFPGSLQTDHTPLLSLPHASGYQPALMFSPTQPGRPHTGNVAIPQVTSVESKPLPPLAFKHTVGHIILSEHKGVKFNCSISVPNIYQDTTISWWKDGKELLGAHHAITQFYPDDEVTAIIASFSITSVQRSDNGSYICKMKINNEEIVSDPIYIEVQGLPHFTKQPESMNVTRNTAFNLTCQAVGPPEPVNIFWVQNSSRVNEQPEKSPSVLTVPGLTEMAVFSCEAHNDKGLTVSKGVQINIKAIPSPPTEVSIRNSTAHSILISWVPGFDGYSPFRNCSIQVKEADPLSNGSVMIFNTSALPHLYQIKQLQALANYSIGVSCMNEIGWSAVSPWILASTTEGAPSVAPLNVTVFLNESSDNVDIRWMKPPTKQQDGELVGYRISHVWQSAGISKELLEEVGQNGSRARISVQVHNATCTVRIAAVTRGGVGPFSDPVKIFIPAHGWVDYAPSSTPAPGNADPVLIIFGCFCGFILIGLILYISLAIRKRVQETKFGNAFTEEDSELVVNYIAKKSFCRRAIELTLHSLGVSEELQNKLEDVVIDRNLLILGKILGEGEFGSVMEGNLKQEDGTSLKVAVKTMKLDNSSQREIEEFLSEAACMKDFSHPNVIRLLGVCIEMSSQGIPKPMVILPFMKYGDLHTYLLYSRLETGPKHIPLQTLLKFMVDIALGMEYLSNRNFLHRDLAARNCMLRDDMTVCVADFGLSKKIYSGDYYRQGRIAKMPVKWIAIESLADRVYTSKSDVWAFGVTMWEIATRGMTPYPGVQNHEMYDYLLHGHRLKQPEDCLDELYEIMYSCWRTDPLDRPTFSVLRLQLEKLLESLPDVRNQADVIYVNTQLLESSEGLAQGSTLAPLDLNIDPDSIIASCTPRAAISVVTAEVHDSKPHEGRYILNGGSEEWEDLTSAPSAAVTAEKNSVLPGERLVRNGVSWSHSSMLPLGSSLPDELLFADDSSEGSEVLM
The experiment can be described thus: Selectivity interaction (KinomeScan (DiscoverX)) EUB0000229b MERTK. The settings on record: at 10 µM.

For experiment [5], the target named is T3, Protein kinase C iota type (Homo sapiens) (UniProt P41743).
T3 sequence (whole entry): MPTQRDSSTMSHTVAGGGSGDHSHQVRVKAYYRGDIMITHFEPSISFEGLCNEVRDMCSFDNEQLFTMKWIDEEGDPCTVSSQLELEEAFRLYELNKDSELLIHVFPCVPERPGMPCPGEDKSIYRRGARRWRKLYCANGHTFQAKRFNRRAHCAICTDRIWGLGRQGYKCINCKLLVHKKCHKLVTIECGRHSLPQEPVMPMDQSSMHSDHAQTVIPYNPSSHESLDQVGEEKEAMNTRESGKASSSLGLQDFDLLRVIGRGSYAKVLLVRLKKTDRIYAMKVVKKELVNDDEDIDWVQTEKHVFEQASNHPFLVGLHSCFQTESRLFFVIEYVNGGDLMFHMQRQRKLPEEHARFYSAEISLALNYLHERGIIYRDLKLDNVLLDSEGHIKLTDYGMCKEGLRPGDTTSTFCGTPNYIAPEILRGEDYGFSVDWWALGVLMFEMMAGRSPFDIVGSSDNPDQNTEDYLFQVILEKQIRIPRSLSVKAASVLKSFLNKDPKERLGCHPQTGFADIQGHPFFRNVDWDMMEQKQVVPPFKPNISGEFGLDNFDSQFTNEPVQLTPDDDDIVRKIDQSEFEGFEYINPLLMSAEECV
Briefly: Selectivity interaction (Kinase panel (Invitrogen)) EUB0000639a PRKCI. To be noted: at 200 nM.

The target in experiment [6] is Serine/threonine-protein kinase pim-1 (Homo sapiens, UniProt P11309). Briefly: Selectivity interaction (Kinase panel (Invitrogen)) EUB0000639a PIM1. To be noted: at 200 nM.
Experiment [7] deals with Polycystin-1 (Homo sapiens) (UniProt P98161). The experiment can be described thus: Selectivity interaction (ActivX KiNativ screen (kinase selectivity in THP-1 cell lysates)) EUB0000639a PKD1. The format is subcellular. The settings on record: lysate.
A short description of experiment [8]: Selectivity interaction (KinomeScan (DiscoverX)) EUB0001049a CDPK1. To be noted: at 1 µM.
In experiment [9] the target is T4, Serine/threonine-protein kinase Nek2 (Homo sapiens) (UniProt P51955).
T4 sequence (whole entry): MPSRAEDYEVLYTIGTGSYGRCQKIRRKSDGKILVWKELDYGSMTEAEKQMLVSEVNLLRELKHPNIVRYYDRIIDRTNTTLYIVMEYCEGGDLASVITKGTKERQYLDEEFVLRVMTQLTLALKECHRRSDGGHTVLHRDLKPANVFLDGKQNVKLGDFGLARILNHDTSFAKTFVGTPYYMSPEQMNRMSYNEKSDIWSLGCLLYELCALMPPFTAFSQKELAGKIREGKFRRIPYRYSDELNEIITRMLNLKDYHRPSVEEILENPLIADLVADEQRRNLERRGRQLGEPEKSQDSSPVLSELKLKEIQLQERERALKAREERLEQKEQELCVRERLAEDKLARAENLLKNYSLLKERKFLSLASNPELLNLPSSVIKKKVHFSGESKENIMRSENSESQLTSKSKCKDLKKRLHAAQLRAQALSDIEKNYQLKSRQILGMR
Briefly: Selectivity interaction (Kinase panel (DSF assay)) EUB0001559a NEK2.

Each structure is given as a SMILES string.

Chain of Polycystin-1 (Homo sapiens) (P98161 24-4303 limits assumed): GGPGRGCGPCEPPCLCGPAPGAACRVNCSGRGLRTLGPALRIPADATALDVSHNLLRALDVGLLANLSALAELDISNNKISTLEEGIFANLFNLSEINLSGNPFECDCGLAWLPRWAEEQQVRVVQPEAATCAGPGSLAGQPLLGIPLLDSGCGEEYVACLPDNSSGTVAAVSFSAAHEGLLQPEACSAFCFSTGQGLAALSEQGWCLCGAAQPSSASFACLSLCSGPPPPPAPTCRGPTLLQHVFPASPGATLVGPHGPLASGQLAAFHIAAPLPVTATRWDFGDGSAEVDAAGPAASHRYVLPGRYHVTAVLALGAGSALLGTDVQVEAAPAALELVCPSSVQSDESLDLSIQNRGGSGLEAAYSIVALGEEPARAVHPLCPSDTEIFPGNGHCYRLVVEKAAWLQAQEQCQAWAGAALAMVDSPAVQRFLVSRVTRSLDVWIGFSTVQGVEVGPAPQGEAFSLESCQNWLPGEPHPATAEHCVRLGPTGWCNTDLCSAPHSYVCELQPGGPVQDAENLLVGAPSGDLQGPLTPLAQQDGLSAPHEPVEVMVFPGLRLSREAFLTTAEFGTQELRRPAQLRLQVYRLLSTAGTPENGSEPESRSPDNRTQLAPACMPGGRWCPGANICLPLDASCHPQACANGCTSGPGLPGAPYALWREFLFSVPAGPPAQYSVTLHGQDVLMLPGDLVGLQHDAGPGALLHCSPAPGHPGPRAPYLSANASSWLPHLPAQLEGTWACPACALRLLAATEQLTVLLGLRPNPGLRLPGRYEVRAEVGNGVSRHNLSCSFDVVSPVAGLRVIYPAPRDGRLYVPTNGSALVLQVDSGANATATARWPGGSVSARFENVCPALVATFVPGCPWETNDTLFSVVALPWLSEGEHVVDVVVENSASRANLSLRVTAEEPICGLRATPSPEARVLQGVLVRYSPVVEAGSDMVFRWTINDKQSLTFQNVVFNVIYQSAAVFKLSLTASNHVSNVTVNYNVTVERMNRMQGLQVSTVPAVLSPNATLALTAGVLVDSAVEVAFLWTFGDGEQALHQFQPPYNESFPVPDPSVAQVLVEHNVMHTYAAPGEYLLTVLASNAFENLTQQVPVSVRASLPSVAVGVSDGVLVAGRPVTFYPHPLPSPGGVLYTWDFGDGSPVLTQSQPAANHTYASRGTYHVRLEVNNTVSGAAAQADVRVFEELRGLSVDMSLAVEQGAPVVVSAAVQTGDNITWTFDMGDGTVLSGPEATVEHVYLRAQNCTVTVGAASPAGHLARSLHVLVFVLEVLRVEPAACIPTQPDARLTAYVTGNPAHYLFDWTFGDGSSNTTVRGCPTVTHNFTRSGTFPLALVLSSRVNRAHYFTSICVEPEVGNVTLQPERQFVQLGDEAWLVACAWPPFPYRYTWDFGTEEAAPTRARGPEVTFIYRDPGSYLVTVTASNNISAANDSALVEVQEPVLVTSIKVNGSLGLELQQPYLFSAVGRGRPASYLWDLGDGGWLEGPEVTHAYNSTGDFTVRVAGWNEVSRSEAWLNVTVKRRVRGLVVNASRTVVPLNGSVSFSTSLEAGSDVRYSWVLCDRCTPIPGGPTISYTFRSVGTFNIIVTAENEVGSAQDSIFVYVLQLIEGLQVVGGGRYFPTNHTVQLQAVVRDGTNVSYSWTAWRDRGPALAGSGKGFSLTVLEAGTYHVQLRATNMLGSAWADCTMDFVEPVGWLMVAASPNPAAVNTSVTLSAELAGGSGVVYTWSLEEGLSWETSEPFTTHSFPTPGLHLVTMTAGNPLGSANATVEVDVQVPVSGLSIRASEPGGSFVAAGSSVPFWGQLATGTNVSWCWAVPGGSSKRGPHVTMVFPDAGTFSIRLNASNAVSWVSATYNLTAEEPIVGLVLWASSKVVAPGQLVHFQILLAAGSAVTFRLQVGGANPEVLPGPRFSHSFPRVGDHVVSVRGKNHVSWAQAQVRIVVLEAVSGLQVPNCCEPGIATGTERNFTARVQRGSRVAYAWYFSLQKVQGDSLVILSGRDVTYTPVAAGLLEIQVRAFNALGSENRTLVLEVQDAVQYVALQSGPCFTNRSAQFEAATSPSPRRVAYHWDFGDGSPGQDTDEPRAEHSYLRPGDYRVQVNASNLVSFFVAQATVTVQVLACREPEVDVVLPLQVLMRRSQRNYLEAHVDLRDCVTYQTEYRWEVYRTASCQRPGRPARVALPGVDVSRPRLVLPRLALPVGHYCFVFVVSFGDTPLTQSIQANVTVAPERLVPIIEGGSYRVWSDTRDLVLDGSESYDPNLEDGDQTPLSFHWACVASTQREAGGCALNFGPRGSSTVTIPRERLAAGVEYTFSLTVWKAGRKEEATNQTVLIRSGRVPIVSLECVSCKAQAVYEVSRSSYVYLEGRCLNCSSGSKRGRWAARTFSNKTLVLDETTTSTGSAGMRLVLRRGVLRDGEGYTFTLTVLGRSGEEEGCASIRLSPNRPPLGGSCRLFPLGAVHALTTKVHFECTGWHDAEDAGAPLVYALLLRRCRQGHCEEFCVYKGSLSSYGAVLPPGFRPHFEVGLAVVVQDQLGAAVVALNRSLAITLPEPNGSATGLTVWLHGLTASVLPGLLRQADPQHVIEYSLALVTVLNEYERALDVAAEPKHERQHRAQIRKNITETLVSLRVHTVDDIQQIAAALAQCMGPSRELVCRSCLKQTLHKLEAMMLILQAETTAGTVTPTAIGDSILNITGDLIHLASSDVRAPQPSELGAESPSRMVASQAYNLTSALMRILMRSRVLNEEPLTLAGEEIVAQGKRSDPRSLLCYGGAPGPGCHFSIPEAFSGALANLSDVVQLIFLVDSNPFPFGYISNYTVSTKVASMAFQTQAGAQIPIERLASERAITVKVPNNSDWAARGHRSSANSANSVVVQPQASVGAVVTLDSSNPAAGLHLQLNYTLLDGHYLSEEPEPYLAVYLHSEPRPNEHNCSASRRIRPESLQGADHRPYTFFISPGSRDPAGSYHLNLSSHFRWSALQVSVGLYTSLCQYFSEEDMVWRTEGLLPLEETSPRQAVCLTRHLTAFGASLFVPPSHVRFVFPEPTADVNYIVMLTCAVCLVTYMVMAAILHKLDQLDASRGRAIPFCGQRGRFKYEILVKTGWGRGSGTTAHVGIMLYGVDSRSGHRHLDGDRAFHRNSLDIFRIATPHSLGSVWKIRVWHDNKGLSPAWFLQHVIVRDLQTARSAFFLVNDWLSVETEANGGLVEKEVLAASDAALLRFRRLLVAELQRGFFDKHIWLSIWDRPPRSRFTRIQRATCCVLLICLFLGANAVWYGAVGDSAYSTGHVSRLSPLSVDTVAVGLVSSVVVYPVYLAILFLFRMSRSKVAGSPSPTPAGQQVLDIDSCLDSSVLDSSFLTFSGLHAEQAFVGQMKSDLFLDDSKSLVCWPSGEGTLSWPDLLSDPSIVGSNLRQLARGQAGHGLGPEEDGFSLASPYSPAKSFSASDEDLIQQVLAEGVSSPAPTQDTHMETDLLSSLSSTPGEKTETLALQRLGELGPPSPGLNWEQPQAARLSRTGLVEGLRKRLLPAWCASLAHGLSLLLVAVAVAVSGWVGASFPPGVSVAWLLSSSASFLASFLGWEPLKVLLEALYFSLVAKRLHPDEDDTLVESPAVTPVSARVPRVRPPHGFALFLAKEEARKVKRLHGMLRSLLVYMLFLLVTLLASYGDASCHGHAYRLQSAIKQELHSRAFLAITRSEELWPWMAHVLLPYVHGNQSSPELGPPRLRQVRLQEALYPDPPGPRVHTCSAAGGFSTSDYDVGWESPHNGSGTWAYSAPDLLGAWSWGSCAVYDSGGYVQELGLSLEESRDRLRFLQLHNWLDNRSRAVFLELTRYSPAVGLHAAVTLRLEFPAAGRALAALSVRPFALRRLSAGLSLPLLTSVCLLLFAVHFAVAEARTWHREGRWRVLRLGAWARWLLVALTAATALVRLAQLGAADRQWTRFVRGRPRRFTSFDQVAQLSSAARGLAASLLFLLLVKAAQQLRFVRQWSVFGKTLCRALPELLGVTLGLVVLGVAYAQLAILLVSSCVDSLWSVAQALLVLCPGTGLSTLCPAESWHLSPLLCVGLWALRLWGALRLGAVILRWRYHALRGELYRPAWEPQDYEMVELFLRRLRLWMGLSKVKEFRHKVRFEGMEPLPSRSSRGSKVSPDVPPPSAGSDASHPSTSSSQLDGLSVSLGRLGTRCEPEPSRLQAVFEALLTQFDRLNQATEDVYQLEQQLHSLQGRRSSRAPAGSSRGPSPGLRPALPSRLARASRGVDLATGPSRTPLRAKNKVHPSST
Chain of Serine/threonine-protein kinase pim-1 (P11309 whole entry, looked up): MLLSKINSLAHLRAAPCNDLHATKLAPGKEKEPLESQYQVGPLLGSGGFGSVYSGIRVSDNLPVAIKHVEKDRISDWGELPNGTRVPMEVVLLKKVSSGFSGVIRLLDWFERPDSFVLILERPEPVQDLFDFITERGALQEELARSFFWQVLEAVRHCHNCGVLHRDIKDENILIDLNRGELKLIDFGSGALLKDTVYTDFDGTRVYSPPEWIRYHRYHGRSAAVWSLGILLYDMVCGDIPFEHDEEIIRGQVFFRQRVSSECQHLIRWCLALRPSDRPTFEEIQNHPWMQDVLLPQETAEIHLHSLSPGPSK
Chain of Serine/threonine-protein kinase 32B (Homo sapiens) (Q9NY57 whole entry): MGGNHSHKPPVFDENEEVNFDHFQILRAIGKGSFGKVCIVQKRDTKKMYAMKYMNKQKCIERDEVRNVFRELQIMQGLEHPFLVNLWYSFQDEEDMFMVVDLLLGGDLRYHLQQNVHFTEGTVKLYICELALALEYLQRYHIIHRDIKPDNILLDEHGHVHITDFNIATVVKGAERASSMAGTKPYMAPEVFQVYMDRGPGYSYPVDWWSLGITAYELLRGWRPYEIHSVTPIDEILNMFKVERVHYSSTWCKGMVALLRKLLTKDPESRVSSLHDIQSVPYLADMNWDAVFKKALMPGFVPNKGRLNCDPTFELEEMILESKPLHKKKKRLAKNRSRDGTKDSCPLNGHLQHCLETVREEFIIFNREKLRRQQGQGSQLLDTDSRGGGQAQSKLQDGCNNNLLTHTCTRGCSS

Compound `Cc1cc([C@@H](C)Nc2ccccc2C(=O)O)c2nc(N3CCOCC3)cc(=O)n2c1` [AZD-6482] returned a % of control in experiment [1] of 71%.

`O=C(NOC[C@H](O)CO)c1ccc(F)c(F)c1Nc1ccc(I)cc1F`: the % of control in [2] is 95%.

As for `CC(C)(O)[C@H](F)CN1Cc2cc(NC(=O)c3cnn4cccnc34)c(N3CCOCC3)cc2C1=O`, the dTM in [3] was determined as 1 K.

With `COc1cc(N(C)c2ccnc3ccc(C(F)(F)F)cc23)cc(OC)c1OC`, in experiment [4], the % binding was 100%.

Take `CC[C@@H]1[C@H](F)C(=O)N[C@@H]1COc1nccc2cc(C(N)=O)c(OC)cc12` [ZIMLOVISERTIB]: the % of inhibition in [5] was 5.1%; in experiment [6] it was 12.3%; in experiment [7] (at 0.01 µM), -7.2%; in experiment [7] (at 0.04 µM), -3.5%; in experiment [7] (at 0.2 µM), -8.9%; in experiment [7] (at 1 µM) it was 8%. The % of inhibition in experiment [7] (at 5 µM) was 8.9%.

As for `COc1cc(Nc2nc(C)cc(-c3cnn4nc(OC)ccc34)n2)cc(C(F)(F)F)c1`, the % of control in experiment [8] was determined as 74%.

Turning to `CN(C(=O)c1cnn2cccnc12)c1cc2c(cc1N1CCOCC1)C(=O)N(C[C@@H](F)C(C)(C)O)C2`, the dTM in experiment [9] is 2.1 K.
